Blank lines part the entries; values can stand above or below the compound they belong to. The source made the active and inactive calls. The calls are words filed in the database; no cut-off is given here.
Experiments:
[1] = Toxicity in Kunming mouse assessed as body weight loss at 2 mg/kg, iv; assay type: organism-based; details: in vivo
[2] = target: Programmed cell death protein 1/Programmed cell death 1 ligand 1 (Homo sapiens, UniProt Q9NZQ7); experiment: Inhibition of PD-1/PD-L1 (unknown origin) protein-protein interaction preincubated for 15 mins followed by PD-1-Eu addition and measured after 90 mins by TR-FRET assay; assay type: protein-complex assay
Sequence of Programmed cell death protein 1/Programmed cell death 1 ligand 1 (Q15116 whole entry): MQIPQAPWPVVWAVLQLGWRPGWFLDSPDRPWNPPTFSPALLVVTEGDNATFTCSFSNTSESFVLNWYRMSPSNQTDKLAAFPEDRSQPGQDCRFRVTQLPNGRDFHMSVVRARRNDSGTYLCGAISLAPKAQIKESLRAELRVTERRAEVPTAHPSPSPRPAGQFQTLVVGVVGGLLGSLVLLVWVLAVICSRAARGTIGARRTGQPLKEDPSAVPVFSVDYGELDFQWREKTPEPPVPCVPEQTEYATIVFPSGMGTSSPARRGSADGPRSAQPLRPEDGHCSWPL
Sequence of Programmed cell death protein 1/Programmed cell death 1 ligand 1 (Q9NZQ7 whole entry): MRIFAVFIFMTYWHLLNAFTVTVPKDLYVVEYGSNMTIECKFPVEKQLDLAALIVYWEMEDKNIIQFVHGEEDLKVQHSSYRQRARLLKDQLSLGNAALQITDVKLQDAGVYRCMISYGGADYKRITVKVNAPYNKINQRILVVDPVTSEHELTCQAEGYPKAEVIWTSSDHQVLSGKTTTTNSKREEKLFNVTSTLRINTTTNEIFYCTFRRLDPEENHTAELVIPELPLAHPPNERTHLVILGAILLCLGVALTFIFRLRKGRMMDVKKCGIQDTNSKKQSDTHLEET

Klebsiella pneumoniae [3] = experiment: Induction of morphological changes in Klebsiella pneumoniae ATCC 13883 assessed as leakage in cellular contents measured for 48 hrs by transmission electron microscopy analysis; assay type: functional, organism-based
[4] = Clearance in rat at 2 mg/kg, iv measured upto 24 hrs by LC-MS/MS analysis; assay type: ADME, organism-based; details: in vivo
Klebsiella pneumoniae [5] = experiment: Induction of morphological changes in Klebsiella pneumoniae ATCC 13883 assessed as reduction in cell membrane thickness measured for 24 hrs by transmission electron microscopy analysis; assay type: functional, organism-based
Klebsiella pneumoniae [6] = experiment: Antimicrobial activity against Klebsiella pneumoniae ATCC 13883 assessed as increase in percentage of bacterial cells by flow cytometry analysis; assay type: functional, organism-based
[7] = Volume of distribution at steady state in rat at 2 mg/kg, iv measured upto 24 hrs by LC-MS/MS analysis; assay type: ADME, organism-based; details: in vivo
[8] = target: T1, UDP-3-O-acyl-N-acetylglucosamine deacetylase (Escherichia coli K-12, UniProt P0A725); experiment: Binding affinity to Escherichia coli LpxC assessed as dissociation constant by SPR analysis
T1 sequence (P0A725 whole entry): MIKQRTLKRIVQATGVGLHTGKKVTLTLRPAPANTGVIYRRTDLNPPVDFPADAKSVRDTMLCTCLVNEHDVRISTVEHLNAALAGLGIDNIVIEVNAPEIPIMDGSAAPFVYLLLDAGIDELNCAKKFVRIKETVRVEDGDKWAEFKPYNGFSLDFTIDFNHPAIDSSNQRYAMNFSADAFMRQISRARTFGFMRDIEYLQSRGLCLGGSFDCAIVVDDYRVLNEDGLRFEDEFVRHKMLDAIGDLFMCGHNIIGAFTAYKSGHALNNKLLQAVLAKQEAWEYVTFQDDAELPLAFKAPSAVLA

Klebsiella pneumoniae [9] = experiment: Downregulation of IFN-gamma expression in Klebsiella pneumoniae ATCC 13883 by Western blot analysis; assay type: functional
[10] = Binding affinity to PD-L1 (unknown origin) assessed as dissociation constant by SPR analysis; set-up: species or system Homo sapiens
Klebsiella pneumoniae [11] = experiment: Antimicrobial activity against Klebsiella pneumoniae ATCC 13883 assessed as inhibition zone; assay type: functional
Klebsiella pneumoniae [12] = experiment: Downregulation of PD-1 expression in Klebsiella pneumoniae ATCC 13883 by Western blot analysis; assay type: functional
A549 = experiment: Cytotoxicity against human A549 cells incubated for 24 hrs by CCK-8 assay; assay type: functional, cell-based; details: A549, 24 h
[13] = Toxicity in Kunming mouse assessed as change in BUN level at 2 mg/kg, iv (reference value: 11.2 +/- 2 mmol/L); assay type: organism-based; details: in vivo
[14] = Toxicity in Kunming mouse assessed as change in AST level at 2 mg/kg, iv (reference value: 91.5 +/- 7.2 IU/L); assay type: organism-based; details: in vivo
Klebsiella pneumoniae [15] = experiment: Antibacterial activity against Klebsiella pneumoniae ATCC 13883 infected in Kunming mouse model measured after 8 hrs; assay type: functional, organism-based
Klebsiella pneumoniae [16] = experiment: Antibacterial activity against Klebsiella pneumoniae ATCC 13883 infected in Kunming mouse model assessed as organised collagen fibers in skin tissue at 2 mg/kg, iv by Masson's trichome staining based analysis; assay type: functional, organism-based
Salmonella typhimurium = experiment: Antimicrobial activity against Salmonella typhimurium ATCC 14028 assessed as inhibition of microbial growth incubated for 64 hrs by broth-microdilution assay; assay type: functional, Salmonella enterica subsp. enterica serovar Typhimurium; details: Salmonella enterica
[17] = AUC (0 to t) in rat at 2 mg/kg, iv measured upto 24 hrs by LC-MS/MS analysis; assay type: ADME, organism-based; details: in vivo
Klebsiella pneumoniae [18] = experiment: Antibacterial activity against Klebsiella pneumoniae ATCC 13883 infected in Kunming mouse model assessed as reduction in bacterial proliferation at 2 mg/kg, iv; assay type: functional, organism-based
Escherichia coli = experiment: Antimicrobial activity against Escherichia coli ATCC 8739 assessed as inhibition of microbial growth incubated for 64 hrs by broth-microdilution assay; assay type: functional
Klebsiella pneumoniae [19] = experiment: Downregulation of IL-2 expression in Klebsiella pneumoniae ATCC 13883 by immunohistochemistry analysis; assay type: functional
[20] = Toxicity in Kunming mouse assessed as change in ALT level at 2 mg/kg, iv (reference value: 54.8 +/- 5.2 IU/L); assay type: organism-based; details: in vivo
Klebsiella pneumoniae [21] = experiment: Downregulation of NF-kappaB expression in Klebsiella pneumoniae ATCC 13883 by Western blot analysis; assay type: functional
Pseudomonas aeruginosa [22] = experiment: Antimicrobial activity against Pseudomonas aeruginosa ATCC 9027 assessed as inhibition of microbial growth incubated for 64 hrs by broth-microdilution assay; assay type: functional
HeLa = experiment: Cytotoxicity against human HeLa cells incubated for 24 hrs by CCK-8 assay; assay type: functional, cell-based
[23] = target: Programmed cell death 1 ligand 1 (Homo sapiens) (UniProt Q9NZQ7); experiment: Binding affinity to PD-L1 (unknown origin) assessed as association constant at equilibrium by ITC analysis
Sequence of Programmed cell death 1 ligand 1 (Homo sapiens) (Q9NZQ7 whole entry): as the sequence (Q9NZQ7 whole entry) above

Klebsiella pneumoniae [24] = experiment: Induction of morphological changes in Klebsiella pneumoniae ATCC 13883 assessed as reduction in cell wall thickness measured for 24 hrs by transmission electron microscopy analysis; assay type: functional, organism-based
[25] = Toxicity in Kunming mouse assessed as side effect at 2 mg/kg, iv; assay type: organism-based; details: in vivo
Klebsiella pneumoniae [26] = experiment: Induction of intracellular ROS accumulation in Klebsiella pneumoniae ATCC 13883 incubated for 12 hrs by fluorescence microscopic analysis; assay type: functional, organism-based
[27] = target: T1, UDP-3-O-acyl-N-acetylglucosamine deacetylase; experiment: Inhibition of Escherichia coli LpxC
Klebsiella pneumoniae [28] = experiment: Downregulation of IL-2 expression in Klebsiella pneumoniae ATCC 13883 by Western blot analysis; assay type: functional
Klebsiella pneumoniae [29] = experiment: Downregulation of PD-L1 expression in Klebsiella pneumoniae ATCC 13883 by immunohistochemistry analysis; assay type: functional
Klebsiella pneumoniae [30] = experiment: Downregulation of PD-L1 expression in Klebsiella pneumoniae ATCC 13883 by Western blot analysis; assay type: functional
Klebsiella pneumoniae [31] = experiment: Downregulation of NLRP3 expression in Klebsiella pneumoniae ATCC 13883 by Western blot analysis; assay type: functional
Pseudomonas aeruginosa [32] = experiment: Antimicrobial activity against Pseudomonas aeruginosa ATCC 9027 assessed as inhibition zone; assay type: functional; details: time 64 hrs
[33] = Toxicity in Kunming mouse assessed as lung damage at 2 mg/kg, iv by masson staining based analysis; assay type: organism-based; details: in vivo
Klebsiella pneumoniae [34] = experiment: Downregulation of IFN-gamma expression in Klebsiella pneumoniae ATCC 13883 by immunohistochemistry analysis; assay type: functional
[35] = Toxicity in Kunming mouse assessed as change in CRE level at 2 mg/kg, iv (reference value: 16.7 +/- 1.6 micromol/L); assay type: organism-based; details: in vivo
[36] = target: Programmed cell death 1 ligand 1 (Homo sapiens) (UniProt Q9NZQ7); experiment: Binding affinity to PD-L1 (unknown origin) assessed as Change in enthalpy by ITC analysis
Klebsiella pneumoniae [37] = experiment: Downregulation of MMP9 expression in Klebsiella pneumoniae ATCC 13883 by Western blot analysis; assay type: functional
[38] = Initial plasma concentration in rat at 2 mg/kg, iv measured upto 24 hrs by LC-MS/MS analysis; assay type: ADME, organism-based
[39] = Half life in rat at 2 mg/kg, iv measured upto 24 hrs by LC-MS/MS analysis; assay type: ADME, organism-based; details: in vivo
[40] = Toxicity in Kunming mouse assessed as lung damage at 2 mg/kg, iv by H and E staining based analysis; assay type: organism-based; details: in vivo
Klebsiella pneumoniae [41] = experiment: Antibacterial activity against Klebsiella pneumoniae ATCC 13883 infected in Kunming mouse model assessed as reduction in alveolar space in lung at 2 mg/kg, iv by H and E staining based analysis; assay type: functional, organism-based
Klebsiella pneumoniae [42] = experiment: Antimicrobial activity against Klebsiella pneumoniae ATCC 13883 assessed as inhibition of microbial growth incubated for 64 hrs by broth-microdilution assay; assay type: functional
Klebsiella pneumoniae [43] = experiment: Induction of morphological changes in Klebsiella pneumoniae ATCC 13883 assessed as leakage in cellular contents measured for 96 hrs by transmission electron microscopy analysis; assay type: functional, organism-based
Klebsiella pneumoniae [44] = experiment: Bactericidal activity against Klebsiella pneumoniae ATCC 13883 assessed as reduction in survival rate by colony counting method; assay type: functional
Klebsiella pneumoniae [45] = experiment: Antibacterial activity against Klebsiella pneumoniae ATCC 13883 infected in Kunming mouse model assessed as reduction in bacterial proliferation at 2 mg/kg, iv in presence of biphenyl isopropyl ester; assay type: functional, organism-based
Klebsiella pneumoniae [46] = experiment: Antibacterial activity against Klebsiella pneumoniae ATCC 13883 infected in Kunming mouse model assessed as reduction in alveolar space in lung at 2 mg/kg, iv in presence of biphenyl isopropyl ester by H and E staining based analysis; assay type: functional, organism-based

Structure (SMILES): C[C@H](O)[C@H](NC(=O)c1ccc(C#Cc2ccc(CN3CCOCC3)cc2)cc1)C(=O)NO
clearance [4]: 75.6 mL/min/kg
Activity (Klebsiella pneumoniae [6]): Active
Vdss ([7]; iv, 2 mg/kg, 24 h): 1.42 L/kg
inhibition zone (IZ) (Klebsiella pneumoniae [11]): 14.2 mm
MIC50 (Salmonella typhimurium): 0.5 µg/mL
AUC(0-t) at 24 h [17]: 289 ng·h/mL
MIC50 (Escherichia coli): 2 µg/mL
MIC50 (Pseudomonas aeruginosa [22]): 1 µg/mL
Activity (Klebsiella pneumoniae [45]): Active
Activity (Klebsiella pneumoniae [26]): Active
inhibition zone (IZ) (Pseudomonas aeruginosa [32]): 13.5 mm
C0 ([38]; in vivo, iv, 2 mg/kg, 24 h): 332 ng/mL
half-life [39]: 0.54 h
Activity (Klebsiella pneumoniae [41]): Active
MIC50 (Klebsiella pneumoniae [42]): 0.5 µg/mL
Activity (Klebsiella pneumoniae [44]): 83%

Structure (SMILES): Cc1c(CN2CCC(C(=O)N3CCCC3C(=O)NO)CC2)cccc1-c1ccccc1 (stereo not given)
IC50 [2]: 0.318 µM
Activity (Klebsiella pneumoniae [6]): Active
Kd [8]: 0.000873 µM
Kd [10]: 0.000135 µM
inhibition zone (IZ) (Klebsiella pneumoniae [11]): 14.4 mm
IC50 (A549): > 50 µM
MIC50 (Salmonella typhimurium): 2 µg/mL
MIC50 (Escherichia coli): 1 µg/mL
MIC50 (Pseudomonas aeruginosa [22]): 1 µg/mL
IC50 (HeLa): > 50 µM
Ka [23]: 4.59 10^5/M
Activity (Klebsiella pneumoniae [26]): Active
IC50 [27]: 4.3 µM
inhibition zone (IZ) (Pseudomonas aeruginosa [32]): 12.6 mm
deltaH [36]: 0.735 kcal/mol
MIC50 (Klebsiella pneumoniae [42]): 0.5 µg/mL

Further lines, with some results ahead:

clearance [4]: 63.7 mL/min/kg
Vd ([7]; read-out: Vdss): 5.71 L/kg
Kd [8]: 0.000357 µM
Kd [10]: 0.000523 µM
MIC50 (Salmonella typhimurium): 0.5 µg/mL
AUC(0-t) at 24 h [17]: 431 ng·h/mL
MIC50 (Escherichia coli): 0.5 µg/mL
MIC50 (Pseudomonas aeruginosa [22]): 0.5 µg/mL
IC50 [27]: 5.2 µM
C0 at 24 h ([38]; plasma): 649 ng/mL
half-life [39]: 2.39 h
MIC50 (Klebsiella pneumoniae [42]): 0.25 µg/mL
Structure (SMILES): Cc1c(COc2cccc(CNC(C(=O)NO)C(C)O)c2)cccc1-c1ccccc1 (stereo not given)
Activity [1]: Non-toxic
IC50 [2]: 0.081 µM
Activity (Klebsiella pneumoniae [3]): Active
Activity (Klebsiella pneumoniae [5]): Active
Activity (Klebsiella pneumoniae [6]): Active
Activity (Klebsiella pneumoniae [9]): Active
inhibition zone (IZ) (Klebsiella pneumoniae [11]): 14.7 mm
Activity (Klebsiella pneumoniae [12]): Active
IC50 (A549): > 50 µM
Activity [13]: 8.6 mmol/L
Activity [14]: 104.2 IU/L
Activity (Klebsiella pneumoniae [15]): Active
Activity (Klebsiella pneumoniae [16]): Active
Activity (Klebsiella pneumoniae [18]): Active
Activity (Klebsiella pneumoniae [19]): Active
Activity [20]: 34.5 IU/L
Activity (Klebsiella pneumoniae [21]): Active
IC50 (HeLa): > 50 µM
Ka [23]: 6.04 10^5/M
Activity (Klebsiella pneumoniae [24]): Active
Activity [25]: Non-toxic
Activity (Klebsiella pneumoniae [26]): Active
Activity (Klebsiella pneumoniae [28]): Active
Activity (Klebsiella pneumoniae [29]): Active
Activity (Klebsiella pneumoniae [30]): Active
Activity (Klebsiella pneumoniae [31]): Active
inhibition zone (IZ) (Pseudomonas aeruginosa [32]): 14.2 mm
Activity [33]: Non-toxic
Activity (Klebsiella pneumoniae [34]): Active
Activity [35]: 12.5 µmol/L
deltaH [36]: 1.79 kcal/mol
Activity (Klebsiella pneumoniae [37]): Active
Activity [40]: Non-toxic
Activity (Klebsiella pneumoniae [41]): Active
Activity (Klebsiella pneumoniae [43]): Active
Activity (Klebsiella pneumoniae [44]): Active

Kd [8]: 0.000873 µM
Kd [10]: 0.000135 µM
MIC50 (Salmonella typhimurium): 1 µg/mL
MIC50 (Escherichia coli): 0.5 µg/mL
MIC50 (Pseudomonas aeruginosa [22]): 0.5 µg/mL
IC50 [27]: 8.4 µM
MIC50 (Klebsiella pneumoniae [42]): 0.5 µg/mL
Structure (SMILES): Cc1c(COc2cccc(CNC(CO)C(=O)NO)c2)cccc1-c1ccccc1 (stereo not given)
IC50 [2]: 0.109 µM
Activity (Klebsiella pneumoniae [6]): Active
inhibition zone (IZ) (Klebsiella pneumoniae [11]): 15.2 mm
IC50 (A549): > 50 µM
IC50 (HeLa): > 50 µM
Ka [23]: 4.17 10^5/M
Activity (Klebsiella pneumoniae [26]): Active
inhibition zone (IZ) (Pseudomonas aeruginosa [32]): 13.8 mm
deltaH [36]: 0.995 kcal/mol

Kd [8]: 0.000401 µM
Kd [10]: 0.000254 µM
Structure (SMILES): CC(C)OC(=O)[C@@H](CO)NCc1cc(Cl)c(OCc2cccc(-c3ccccc3)c2Br)cc1OCc1cccnc1
deltaH [36]: 1.13 kcal/mol
Activity (Klebsiella pneumoniae [46]): Active

Source: ChEMBL document CHEMBL6153126, “Design, Synthesis, and Activity Evaluation of Novel Bifenamide Dual-Target Antibacterial Inhibitors and Carrier Based on Infectious Microenvironment” (J Med Chem, 2025)
